From patent US10570179B2, “Substituted urea depsipeptide analogs as activators of the CLPP endopeptidase” (priority 2016, dated 2020)
≈ marks a conversion by molar mass, not a printed value. Like-named read-outs stand apart in the source and are kept apart here. Numbered stars: 1 amine (or outer) side, 2 acyl side, 3 side chain; on linkers, the order of the positions; unused ones are H or OH. Bridge positions count the residues as written; N and C are the ends. Square brackets hold non-standard residues; d marks the D form. Peptide text beside a SMILES is read from it. * marks the point of attachment. Morpholine(3S-CO) = O=C(O)[C@@H]1COCCN1; Phe(3-Me) = Cc1cccc(C[C@H](N)C(=O)O)c1; X4 = O=C1CN([*:1])[C@H](C(=O)[*:2])CN1; Pro(4R-Me) = C[C@H]1CN[C@H](C(=O)O)C1; Hyp = O=C(O)[C@@H]1C[C@@H](O)CN1; NH(4-Cl-phenyl) = Clc1ccc(N*)cc1; NH(4-Et-phenyl) = CCc1ccc(N*)cc1; aThr = C[C@H](O)[C@H](N)C(=O)O; Pip = O=C(O)[C@@H]1CCCCN1; CO = O=C([*:1])[*:2]

Assays:
[1] = target: T1, S. aureus ClpP (Sa-ClpP) (Staphylococcus aureus, UniProt Q2G036); experiment: Casein-BODIPY digestion assay (ClpP activation); format: biochemical
T1 construct: made in house; host or cells: E. coli BL21 (DE3)
T1 sequence (Q2G036 whole entry): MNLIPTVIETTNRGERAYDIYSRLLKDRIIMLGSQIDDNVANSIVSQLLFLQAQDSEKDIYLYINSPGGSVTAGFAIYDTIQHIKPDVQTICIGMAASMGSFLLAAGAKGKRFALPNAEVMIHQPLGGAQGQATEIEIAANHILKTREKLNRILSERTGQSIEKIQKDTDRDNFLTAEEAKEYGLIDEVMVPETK

[2] = system: S. aureus ΔClpP; experiment: Minimal inhibitory concentration, microbroth dilution; format: cell-based, Staphylococcus aureus; conditions: MIC; ClpP inactivated
Outline: (§1)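 MICs were determined by CLSI broth microdilution, using two-fold compound dilutions from a final 200 μM and about 10^5 cfu/mL inoculum. Plates were incubated aerobically at 37 °C overnight. The MIC was read visually as the lowest concentration preventing growth.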

[3] = system: E. faecails; experiment: as above; format: cell-based; conditions: Enterococcus faecalis
Outline: as §1

[4] = system: MRSA NRS70; experiment: as above; format: cell-based; conditions: Staphylococcus aureus
Outline: as §1

[5] = system: S. aureus ATCC 29213; experiment: as above; format: cell-based; conditions: Staphylococcus aureus
Outline: as §1

[6] = system: S. aureus USA 300; experiment: as above; format: cell-based; conditions: Staphylococcus aureus
Outline: as §1

[7] = read-out: Minimal Inhibitory Concentrations (μM) E. faecails, MIC
[8] = read-out: Minimal Inhibitory Concentrations (μM) MRSA NRS70, MIC
[9] = ATCC29213, read-out: Minimal Inhibitory Concentrations (μM) S. aureus ATCC 29213, MIC
[10] = USA300, read-out: Minimal Inhibitory Concentrations (μM) S. aureus USA 300, MIC

| Compound | EC50 [1] [nM] | Minimal Inhibitory Concentrations (μM) S. aureus ΔClpP [2] [µM] | MIC ([3]; MIC, read-out: Minimal Inhibitory Concentrations (μM) E. faecails) [µM] | MIC ([4]; MIC, read-out: Minimal Inhibitory Concentrations (μM) MRSA NRS70) [µM] | MIC ([5]; ATCC29213, MIC, read-out: Minimal Inhibitory Concentrations (μM) S. aureus ATCC 29213) [µM] | MIC ([6]; USA300, MIC, read-out: Minimal Inhibitory Concentrations (μM) S. aureus USA 300) [µM] | MIC [3, 7] [µM] | MIC [4, 8] [µM] | MIC [5, 9] [µM] | MIC [6, 10] [µM] |
| --- | --- | --- | --- | --- | --- | --- | --- | --- | --- | --- |
| CCc1ccc(NC(=O)N[C@@H](Cc2cccc(C)c2)C(=O)N[C@@H]2C(=O)N3C[C@H](O)C[C@H]3C(=O)N3CCCC[C@H]3C(=O)N[C@@H](C)C(=O)N3CCC[C@H]3C(=O)O[C@H]2C)cc1 [Compound 58, (S)-2-(3-(4-ETHYLPHENYL)UREIDO)-N-((6S,8AS,14AS,16R,20S,21S,23AS)-16-HYDROXY-6,21-DIMETHYL-5,8,14,19,23-PENTAOXOOCTADECAHYDRO-1H,5H,14H,19H-PYRIDO[2,1-I]DIPYRROLO[2,1-C:2′,1′-L][1]OXA[4,7,10,13]TETRAAZACYCLOHEXADECIN-20-YL)-3-(M-TOLYL)PROPANAMIDE] ({NH(4-Et-phenyl)-CO}-[Phe(3-Me)][aThr][Hyp][Pip]AP; ester 2-C) | 270 ± 100 | >20 | 2.5 (≈ 2 µg/mL) | 0.625 (≈ 0.501 µg/mL) | 2.5 (≈ 2 µg/mL) | 0.625 (≈ 0.501 µg/mL) |  |  |  |  |
| Cc1cccc(C[C@H](NC(=O)Nc2ccc(Cl)cc2)C(=O)N[C@@H]2C(=O)N3CCC[C@H]3C(=O)N3CC(=O)NC[C@H]3C(=O)N[C@@H](C)C(=O)N3C[C@H](C)C[C@H]3C(=O)O[C@H]2C)c1 [Compound 75, (S)-2-(3-(4-CHLOROPHENYL)UREIDO)-3-(M-TOLYL)-N-((6AS,12S,13S,15AS,17R,21S,23AS)-13,17,21-TRIMETHYL-3,6,11,15,20,23-HEXAOXOOCTADECAHYDRO-2H,6H,11H,15H-PYRAZINO[2,1-I]DIPYRROLO[2,1-C:2′,1′-L][1]OXA[4,7,10,13]TETRAAZACYCLOHEXADECIN-12-YL)PROPANAMIDE] ({NH(4-Cl-phenyl)-CO}-[Phe(3-Me)][aThr]P[X4]A[Pro(4R-Me)]; ester 2-C) | 1210 ± 1000 | >20 |  |  |  |  | > 20 | 20 (≈ 16.4 µg/mL) | 20 (≈ 16.4 µg/mL) | 10 (≈ 8.21 µg/mL) |
| Cc1cccc(C[C@H](NC(=O)Nc2ccc(Cl)cc2)C(=O)N[C@@H]2C(=O)N3C[C@H](O)C[C@H]3C(=O)N3CCOC[C@H]3C(=O)N[C@@H](C)C(=O)N3C[C@H](C)C[C@H]3C(=O)O[C@H]2C)c1 [Compound 73, (S)-2-(3-(4-CHLOROPHENYL)UREIDO)-N-((6AS,8R,12S,13S,15AS,17R,21S,23AS)-8-HYDROXY-13,17,21-TRIMETHYL-6,11,15,20,23-PENTAOXOOCTADECAHYDRO-6H,11H,15H-[1,4]OXAZINO[3,4-I]DIPYRROLO[2,1-C:2′,1′-L][1]OXA[4,7,10,13]TETRAAZACYCLOHEXADECIN-12-YL)-3-(M-TOLYL)PROPANAMIDE] ({NH(4-Cl-phenyl)-CO}-[Phe(3-Me)][aThr][Hyp][Morpholine(3S-CO)]A[Pro(4R-Me)]; ester 2-C) | 250 ± 100 | >20 |  |  |  |  | 0.625 (≈ 0.515 µg/mL) | 2.5 (≈ 2.06 µg/mL) | 2.5 (≈ 2.06 µg/mL) | 0.625 (≈ 0.515 µg/mL) |
| Cc1cccc(C[C@H](NC(=O)Nc2ccc(Cl)cc2)C(=O)N[C@@H]2C(=O)N3CCC[C@H]3C(=O)N3CCCC[C@H]3C(=O)N[C@@H](C)C(=O)N3C[C@H](C)C[C@H]3C(=O)O[C@H]2C)c1 [Compound 63, (S)-2-(3-(4-CHLOROPHENYL)UREIDO)-3-(M-TOLYL)-N-((2R,6S,8AS,14AS,20S,21S,23AS)-2,6,21-TRIMETHYL-5,8,14,19,23-PENTAOXOOCTADECAHYDRO-1H,5H,14H,19H-PYRIDO[2,1-I]DIPYRROLO[2,1-C:2′,1′-L][1]OXA[4,7,10,13]TETRAAZACYCLOHEXADECIN-20-YL)PROPANAMIDE] ({NH(4-Cl-phenyl)-CO}-[Phe(3-Me)][aThr]P[Pip]A[Pro(4R-Me)]; ester 2-C) | 400 ± 200 | >20 |  |  |  |  | 0.313 (≈ 0.252 µg/mL) | 0.313 (≈ 0.252 µg/mL) | 0.625 (≈ 0.504 µg/mL) | 0.313 (≈ 0.252 µg/mL) |
